Measurements as given in the supplement of paper PMC4862054.

Assays:
HCC1143 [1] = conditions: 72 h
In short: (§1)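 Two sequential readouts followed a 72 h incubation of breast cancer cell lines with compound at 5 concentrations in 10-fold steps over a compound-specific 10,000-fold range: CellTox Green fluorescence (485/520 nm) for cell death, then CellTiter-Glo luminescence, after 10 min at room temperature, for viability. Each plate was normalised to 0.1 % DMSO and a positive kill control. Dose-response curves were fitted for EC50, censored at the top concentration.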

HDQ-P1 [2] = conditions: 72 h
In short: as §1

HCC1599 [3] = conditions: 72 h
In short: as §1

CAL-148 [4] = conditions: 72 h
In short: as §1

CAL-85-1 [5] = conditions: 72 h
In short: (§2)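 Breast cancer cell lines in 20 µl suspension were seeded onto 384-well plates pre-loaded with compound dissolved in 5 µl medium, then incubated 72 h. For viability, 2.5 µl CellTiter-Blue was added for 2 h at 37 °C and fluorescence read at 560/590 nm. Each plate was normalised to vehicle and a positive kill control and checked by Z'-factor. EC50 comes from the fitted percent-inhibition dose-response curve, censored at the highest concentration; rows with zero drug sensitivity score were dropped.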

CAL-51 [6] = conditions: 72 h
In short: as §2

HDQ-P1 [7] = conditions: 72 h; remark: listed apart in the source
In short: as §2

CAL-148 [8] = conditions: 72 h; remark: listed apart in the source
In short: as §2

MDA-MB-453 = experiment: normalised viability (% of control), CellTiter-Blue; higher = more viable cells (about 100 = DMSO control); conditions: incubation time: 72 h
In short: (§3)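 Vehicle (100) and a positive kill control (0) anchored the normalisation of each plate, and Z'-factor was used for quality control. Breast cancer cell lines in 20 µl suspension were incubated 72 h over compound in 5 µl medium in 384-well plates, followed by CellTiter-Blue at 560/590 nm. The value is normalised viability at a single listed concentration of the series.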

BT-474 [9] = experiment: as above; conditions: incubation time: 72 h
In short: as §3

HDQ-P1 [10] = experiment: as above; conditions: incubation time: 72 h
In short: as §3

HCC1599 [11] = experiment: as above; conditions: incubation time: 72 h
In short: as §3

MDA-MB-468 [12] = experiment: as above; conditions: incubation time: 72 h
In short: as §3

CAL-148 [13] = experiment: as above; conditions: incubation time: 72 h
In short: as §3

CAL-85-1 [14] = conditions: 72 h; remark: listed apart in the source
Method: (§4)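 Drug sensitivity and resistance testing (DSRT) of breast cancer cell lines in 384-well plates, 5 concentrations in 10-fold dilutions over a compound-specific 10,000-fold range. After 72 h, cytotoxicity was read by CellTox Green fluorescence and viability by CellTiter-Glo luminescence (multiplexed), normalised to DMSO and benzethonium chloride controls. EC50 is the inflection point of the fitted dose-response curve (bottom asymptote free, so it can be relative for partial curves) and is censored at the highest tested concentration. Rows with DSS 0 (no meaningful response) were excluded.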

CAL-51 [15] = conditions: 72 h; remark: listed apart in the source
Method: as §4

BT-474 [16] = conditions: 72 h
Method: as §4

MDA-MB-436 [17] = conditions: 72 h
Method: as §4

HDQ-P1 [18] = conditions: 72 h; remark: listed apart in the source
Method: as §4

BT-549 = conditions: 72 h
In short: as §2

CAL-120 [19] = conditions: 72 h
In short: as §2

MDA-MB-231 [20] = conditions: 72 h
In short: as §2

SK-BR-3 = conditions: 72 h
In short: as §2

BT-474 [21] = conditions: 72 h; remark: listed apart in the source
In short: as §2

MDA-MB-436 [22] = conditions: 72 h; remark: listed apart in the source
In short: as §2

MDA-MB-468 [23] = conditions: 72 h
In short: as §2

MFM-223 [24] = conditions: 72 h
In short: as §1

DU-4475 [25] = conditions: 72 h
In short: as §1

DU-4475 [26] = conditions: 72 h; remark: listed apart in the source
In short: as §2

MFM-223 [27] = conditions: 72 h; remark: listed apart in the source
In short: as §2

HCC1143 [28] = conditions: 72 h; remark: listed apart in the source
In short: as §2

Hs578T [29] = conditions: 72 h
In short: as §2

HCC1937 = conditions: 72 h
In short: as §2

HCC1599 [30] = conditions: 72 h; remark: listed apart in the source
In short: as §2

CAL-120 [31] = conditions: 72 h; remark: listed apart in the source
Method: as §4

MDA-MB-231 [32] = conditions: 72 h; remark: listed apart in the source
Method: as §4

Hs578T [33] = conditions: 72 h; remark: listed apart in the source
Method: as §4

CAL-148 [34] = conditions: 72 h; remark: listed apart in the source
Method: as §4

CN1CCN(CCOc2cc(OC3CCOCC3)c3c(Nc4c(Cl)ccc5c4OCO5)ncnc3c2)CC1 [Saracatinib]
EC50, CellTiter-Glo (HCC1143 [1]): 1330 nM
EC50, CellTiter-Glo (HDQ-P1 [2]): 541 nM
EC50, CellTiter-Glo (HCC1599 [3]): 5.9 µM
EC50, CellTiter-Glo (CAL-148 [4]): 2550 nM
EC50, CellTiter-Blue viability (CAL-85-1 [5]): 757 nM
EC50, CellTiter-Blue viability (CAL-51 [6]): 700 nM
EC50, CellTiter-Blue viability (HDQ-P1 [7]): 615 nM
EC50, CellTiter-Blue viability (CAL-148 [8]): 447 nM
normalised viability (MDA-MB-453; 30 nM): 101%
normalised viability (BT-474 [9]; 1000 nM): 85.2%
normalised viability (HDQ-P1 [10]; 30 nM): 107%
normalised viability (HCC1599 [11]; 1000 nM): 98%
normalised viability (MDA-MB-468 [12]; 1000 nM): 87.2%
normalised viability (CAL-148 [13]; 30 nM): 78.7%
EC50, CellTox Green (CAL-85-1 [14]): 2940 nM
EC50, CellTox Green (CAL-51 [15]): 371 nM
EC50, CellTox Green (BT-474 [16]): 8.13 µM
EC50, CellTox Green (MDA-MB-436 [17]): 1620 nM
EC50, CellTox Green (HDQ-P1 [18]): 6.61 µM
EC50, CellTiter-Blue viability (BT-549): 1510 nM
EC50, CellTiter-Blue viability (CAL-120 [19]): 567 nM
EC50, CellTiter-Blue viability (MDA-MB-231 [20]): 13.2 nM
EC50, CellTiter-Blue viability (SK-BR-3): 6750 nM
EC50, CellTiter-Blue viability (BT-474 [21]): 1540 nM
EC50, CellTiter-Blue viability (MDA-MB-436 [22]): > 10000 nM
EC50, CellTiter-Blue viability (MDA-MB-468 [23]): 1410 nM

Cn1cncc1[C@@](N)(c1ccc(Cl)cc1)c1ccc2c(c1)c(-c1cccc(Cl)c1)cc(=O)n2C [Tipifarnib]
EC50, CellTiter-Glo (MFM-223 [24]): 5.05 µM
EC50, CellTiter-Glo (DU-4475 [25]): 412 nM
EC50, CellTiter-Glo (HDQ-P1 [2]): 106 nM
EC50, CellTiter-Glo (HCC1599 [3]): 8.63 µM
EC50, CellTiter-Glo (CAL-148 [4]): 380 nM
EC50, CellTiter-Blue viability (DU-4475 [26]): 59.1 nM
EC50, CellTiter-Blue viability (CAL-85-1 [5]): 33.1 nM
EC50, CellTiter-Blue viability (CAL-51 [6]): 1500 nM
EC50, CellTiter-Blue viability (HDQ-P1 [7]): 16.6 nM
EC50, CellTiter-Blue viability (CAL-148 [8]): 33 nM
normalised viability (MDA-MB-453; 30 nM): 82.2%
normalised viability (BT-474 [9]; 1000 nM): 84.4%
normalised viability (HDQ-P1 [10]; 30 nM): 68%
normalised viability (HCC1599 [11]; 1000 nM): 62.2%
normalised viability (MDA-MB-468 [12]; 1000 nM): 95.5%
normalised viability (CAL-148 [13]; 30 nM): 74.1%
EC50, CellTox Green (CAL-85-1 [14]): 4740 nM
EC50, CellTox Green (CAL-51 [15]): 19.9 nM
EC50, CellTiter-Blue viability (MFM-223 [27]): 1010 nM
EC50, CellTiter-Blue viability (BT-549): 3730 nM
EC50, CellTiter-Blue viability (HCC1143 [28]): 7.7 nM
EC50, CellTiter-Blue viability (CAL-120 [19]): 55.5 nM
EC50, CellTiter-Blue viability (MDA-MB-231 [20]): 97.8 nM
EC50, CellTiter-Blue viability (SK-BR-3): 540 nM
EC50, CellTiter-Blue viability (BT-474 [21]): 1450 nM
EC50, CellTiter-Blue viability (Hs578T [29]): 4400 nM
EC50, CellTiter-Blue viability (HCC1937): 101 nM
EC50, CellTiter-Blue viability (HCC1599 [30]): 151 nM
EC50, CellTiter-Blue viability (MDA-MB-468 [23]): 5590 nM

O=C1NC(=O)[C@@H](c2cn3c4c(cccc24)CCC3)[C@@H]1c1c[nH]c2ccccc12 [Tivantinib]
EC50, CellTiter-Glo (HCC1143 [1]): > 1000 nM
EC50, CellTiter-Glo (DU-4475 [25]): 222 nM
EC50, CellTiter-Glo (HCC1599 [3]): 0.973 µM
EC50, CellTiter-Glo (CAL-148 [4]): 810 nM
EC50, CellTiter-Blue viability (DU-4475 [26]): 847 nM
EC50, CellTiter-Blue viability (CAL-85-1 [5]): 543 nM
EC50, CellTiter-Blue viability (CAL-51 [6]): 674 nM
EC50, CellTiter-Blue viability (CAL-148 [8]): 759 nM
normalised viability (MDA-MB-453; 3 nM): 108%
normalised viability (BT-474 [9]; 100 nM): 106%
normalised viability (HDQ-P1 [10]; 3 nM): 120%
normalised viability (HCC1599 [11]; 100 nM): 95.7%
normalised viability (MDA-MB-468 [12]; 100 nM): 103%
normalised viability (CAL-148 [13]; 3 nM): 93%
EC50, CellTox Green (CAL-120 [31]): 399 nM
EC50, CellTox Green (MDA-MB-231 [32]): 474 nM
EC50, CellTox Green (CAL-85-1 [14]): 266 nM
EC50, CellTox Green (CAL-51 [15]): 671 nM
EC50, CellTox Green (Hs578T [33]): 96.6 nM
EC50, CellTox Green (CAL-148 [34]): 6.67 nM
EC50, CellTiter-Blue viability (BT-549): 340 nM
EC50, CellTiter-Blue viability (CAL-120 [19]): 398 nM
EC50, CellTiter-Blue viability (MDA-MB-231 [20]): 676 nM
EC50, CellTiter-Blue viability (SK-BR-3): 597 nM
EC50, CellTiter-Blue viability (BT-474 [21]): 613 nM
EC50, CellTiter-Blue viability (Hs578T [29]): 592 nM
EC50, CellTiter-Blue viability (HCC1937): 99 nM
EC50, CellTiter-Blue viability (MDA-MB-436 [22]): 43.5 nM
EC50, CellTiter-Blue viability (HCC1599 [30]): 331 nM
EC50, CellTiter-Blue viability (MDA-MB-468 [23]): 578 nM
